Data published in patent publication US8067542B1 (priority 2003, dated 2011).
Like-named read-outs stand apart in the source and are kept apart here.

Columns and labels:
Fusarium graminearum [1] = assay type: cell-based
Fusarium graminearum [2] = conditions: cited from earlier work
Verticillium dahliae [3] = assay type: cell-based
Verticillium dahliae [4] = conditions: plants expressing AlfAFP; cited from earlier work
[5] = High Ionic Strength Media (50 mM K+, 1 mM Ca2+)

| Substance | minimun concentration of protein required to inhibit fungal growth (Fusarium graminearum [1]; [5]) | minimun concentration of protein required to inhibit fungal growth (Fusarium graminearum [1]; Standard Media) [ppm] | protection of plants infected with Fusarium head blight (Fusarium graminearum [2]) | minimum concentration of protein required to inhibit fungal growth (Verticillium dahliae [3]; [5]) [ppm] | minimum concentration of protein required to inhibit fungal growth (Verticillium dahliae [3]; Standard Media) [ppm] | agronomic effect on potato tuber size (Verticillium dahliae [4]) |
| --- | --- | --- | --- | --- | --- | --- |
| Alf3: AlfAFP variant: AsnTyr inserted between C33 and R34 (RTCENLADKYRGPCFSGCDTHCTTKENAVSGRCNYRDDFRCWCTKRC; listed as Medicago sativa) | >>>20 ppm | 20 |  |  |  |  |
| Alf - wt: native alfalfa antifungal protein (plant defensin from Medicago sativa seeds), SEQ ID NO:2 (RTCENLADKYRGPCFSGCDTHCTTKENAVSGRCRDDFRCWCTKRC; listed as Medicago sativa) | 15-20 ppm | 10 | unable to provide an adequate level of protection | 15 | 5 | reduction in potato tuber size |
